Type in all cases: biochemical
The target in assay [1] is T1, rAaeUPO-PaDa-I-H (unspecific peroxygenase) (Cyclocybe aegerita, UniProt B9W4V6, F354L/I291V/L110F/V100A/V118I).
T1 construct: gene APO1; recombinant, expressed in Pichia pastoris, C-terminal histidine tag
Put plainly: competition-based 5-nitro-1,3-benzodioxole peroxygenase assay.

Assay [2] addresses T1, rAaeUPO-PaDa-I-H (unspecific peroxygenase). Put plainly: competition-based 5-nitro-1,3-benzodioxole peroxygenase assay; also converted to (R)-alcohol […].
For assay [3] the target is unchanged. The assay is described as above. This is another data set of the same source.

We go through 3 compounds from publication PMC10107140, “Preparative‐Scale Biocatalytic Oxygenation of N‐Heterocycles with a Lyophilized Peroxygenase Catalyst” (Angewandte Chemie (International Ed. in English), 2022).

T1 sequence (B9W4V6 44-371 V100A/L110F/V118I/I291V/F354L): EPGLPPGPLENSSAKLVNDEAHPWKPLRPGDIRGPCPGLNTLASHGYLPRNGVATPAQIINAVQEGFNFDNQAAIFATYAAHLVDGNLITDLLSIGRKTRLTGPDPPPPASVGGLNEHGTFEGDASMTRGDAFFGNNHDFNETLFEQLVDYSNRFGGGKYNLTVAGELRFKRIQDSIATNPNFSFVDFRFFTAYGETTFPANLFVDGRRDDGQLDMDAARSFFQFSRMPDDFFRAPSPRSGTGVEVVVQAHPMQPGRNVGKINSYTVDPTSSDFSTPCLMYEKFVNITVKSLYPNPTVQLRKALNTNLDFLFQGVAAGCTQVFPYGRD

A word on the IC50: it is the midpoint of a concentration-inhibition curve. `CCc1ccncc1` [compound 6, 4-ethylpyridine] gave an IC50 in assay [1] of 16 µM. Turning to `CCc1cccnc1` [compound 10, 3-ethylpyridine], the IC50 in assay [2] stood at 700 µM. `CCc1ccccn1` [compound 14, 2-ethylpyridine] returned an IC50 in assay [3] of 29500 µM. In other words, the millimolar range.
